According to patent publication US10568840B2, “Self assembled gels for controlled delivery of encapsulated agents to cartilage” (The Brigham and Women's Hospital, Inc., priority 2016, dated 2020):

Columns and labels:
[1] = Log P of GRAS amphiphiles; assay type: physicochemical; conditions: GRAS amphiphile alone
Excerpt: (log P is the partition coefficient of a molecule between an aqueous and lipophilic phases, usually octanol and water; commonly used as a measure of lipophilicity of a compound.)

[2] = In vitro release of L-006235 from SP and SP-DOTAP hydrogel (dialysis, HPLC); assay type: physicochemical; conditions: from hydrogel in PBS at 37° C.; in 7 days
Procedure: SP-DOTAP gel was assayed for its ability to retain the encapsulated Cathepsin-K inhibitor, L-006235, loaded at 10% (w/w). In vitro release of L-006235 from SP-only hydrogel and from SP-DOTAP hydrogel was evaluated in PBS at 37° C. Drug-loaded hydrogels (200 μL, 10 mg drug/mL) further suspended in PBS (800 μl) were placed in dialysis tubing (8-10 kD molecular weight cut-off, Spectrum Labs). The dialysis bags filled with hydrogel in the suspension medium were placed in a 40 mL sink medium (PBS), and incubated at 37° C. with a shaking speed of 150 rpm. At each time point, an aliquot (1 ml) from the sink medium was removed and replenished with the same volume of fresh PBS to ensure constant sink conditions. Aliquots were lyophilized and dissolved in 250 μL methanol, followed by high performance liquid chromatography (HPLC) analysis of the drug amount.

Row | Compound | Log P ([1]; Table 1) | Log P ([1]; Table 2) | cumulative release of L-006235 [2] | logP ([1]; aqueous and lipophilic phases, usually octanol and water, Table 1)
1 | triglycerol monostearate [TG18] | 3.899 | 3.899 |  | 
2 | sucrose palmitate [SP] | 0.64 | 0.64 |  | 
3 | sucrose stearate [SS] | 1.416 |  |  | 
4 | CN1CCN(c2nc(-c3ccc(C(=O)NC4(C(=O)NCC#N)CCCCC4)cc3)cs2)CC1 [L-006235] |  |  | less than 10% | 
5 | CCCCCCCCCCCCCCCC(=O)OC[C@H](O)[C@H]1OC(=O)C(O)=C1O [AP, ascorbyl palmitate] |  |  |  | 4.62
